Test results: patent US7232912B2, “Indazole compounds, pharmaceutical compositions, and methods for mediating or inhibiting cell proliferation” (Agouron Pharmaceuticals, Inc., priority 2000, dated 2007)
pIC50, pKi: −log10 of the molar value. Read-outs that look alike come from different tables or passages of the source.

Tests used:
VEGF-R2 = target: T1, VEGF-R2 (Homo sapiens, UniProt P35968, DEL940-989/E990V); experiment: VEGF-R2 Assay (coupled spectrophotometric FLVK-P / ELISA); assay type: biochemical; conditions: for inhibition at 1 µM: read-out: VEGF % Inhib. at 1 μM
T1 construct: VEGF-R2Δ50 contains residues 806–939 and 990–1171; made in house; host or cells: baculovirus/insect cells
From the text: VEGF-R2 Construct for Assay
This construct determines the ability of a test compound to inhibit tyrosine kinase activity. A construct (VEGF-R2Δ50) of the cytosolic domain of human vascular endothelial growth factor receptor 2 (VEGF-R2) lacking the 50 central residues of the 68 residues of the kinase insert domain was expressed in a baculovirus/insect cell system. Of the 1356 residues of full-length VEGF-R2, VEGF-R2Δ50 contains residues 806–939 and 990–1171, and also one point mutation (E990V) within the kinase insert domain relative to wild-type VEGF-R2. […] See Parast et al., Biochemistry, 37,16788–16801 (1998).
Coupled Spectrophotometric (FLVK-P) Assay
The production of ADP from ATP that accompanies phosphoryl transfer was coupled to oxidation of NADH using phosphoenolpyruvate (PEP) and a system having pyruvate kinase (PK) and lactic dehydrogenase (LDH). The oxidation of NADH was monitored by following the decrease of absorbance at 340 nm (e340=6.22 cm^1 mM^−1) using a Beckman DU 650 spectrophotometer. Assay conditions for phosphorylated VEGF-R2A50 (indicated as FLVK-P in the tables below) were the following: 1 mM PEP; 250 μM NADH; 50 units of LDH/mL; 20 units of PK/mL; 5 mM DTT; 5.1 mM poly(E4Y1); 1 mM ATP; and 25 mM MgCl2 in 200 mM Hepes, pH 7.5. Assay conditions for unphosphorylated VEGF-R2A50 (indicated as FLVK in the tables) were the following: 1 mM PEP; 250 μM NADH; 50 units of LDH/mL; 20 units of PK/mL; 5 mM DTT; 20 mM poly(E4Y1); 3 mM ATP; and 60 mM MgCl2 and 2 mM MnCl2 in 200 mM Hepes, pH 7.5. Assays were initiated with 5 to 40 nM of enzyme. Ki values were determined by measuring enzyme activity in the presence of varying concentrations of test compounds. The data were analyzed using Enzyme Kinetic and Kaleidagraph software.
Formation of phosphogastrin was monitored using biotinylated gastrin peptide (1–17) as substrate. Biotinylated phosphogastrin was immobilized using streptavidin coated 96-well microtiter plates followed by detection using anti-phosphotyrosine-antibody conjugated to horseradish peroxidase. The activity of horseradish peroxidase was monitored using 2,2′-azino-di-[3-ethylbenzathiazoline sulfonate(6)] diammonium salt (ABTS). Typical assay solutions contained: 2 μM biotinylated gastrin peptide; 5 mM DTT; 20 μM ATP; 26 mM MgCl2; and 2 mM MnCl2 in 200 mM Hepes, pH 7.5. The assay was initiated with 0.8 nM of phosphorylated VEGF-R2Δ50. Horseradish peroxidase activity was assayed using ABTS, 10 mM. The horseradish peroxidase reaction was quenched by addition of acid (H2SO4), followed by absorbance reading at 405 nm. Ki values were determined by measuring enzyme activity in the presence of varying concentrations of test compounds. The data were analyzed using Enzyme Kinetic and Kaleidagraph software.

HCT 116 cell line = experiment: Inhibition of Cell Growth (MTT tetrazolium salt assay); assay type: cell-based; conditions: Homo sapiens; for pIC50: 50% inhibition of growth, read-out: HCT 116 IC50; for IC50: HCT-116, read-out: HCT 116 IC50 (uM)
Summary of the method: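 HCT 116 cells in McCoy's 5A were dosed 4 h after plating, in 0.5% (v/v) DMSO, then held 4–6 days at 37 °C, 5% CO2. MTT at 0.2 mg/mL final for 4 h; DMSO-solubilized formazan read at 540 nm. IC50 taken from the linear part of a semi-log plot versus DMSO-only controls.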

[1] = HCT 116, MTT, IC90, read-out: HCT 116 IC90
[2] = HCT-116, read-out: HCT 116 IC90 (uM)

T1 sequence (P35968 with tags, fused parts or gaps DEL940-989/E990V limits assumed): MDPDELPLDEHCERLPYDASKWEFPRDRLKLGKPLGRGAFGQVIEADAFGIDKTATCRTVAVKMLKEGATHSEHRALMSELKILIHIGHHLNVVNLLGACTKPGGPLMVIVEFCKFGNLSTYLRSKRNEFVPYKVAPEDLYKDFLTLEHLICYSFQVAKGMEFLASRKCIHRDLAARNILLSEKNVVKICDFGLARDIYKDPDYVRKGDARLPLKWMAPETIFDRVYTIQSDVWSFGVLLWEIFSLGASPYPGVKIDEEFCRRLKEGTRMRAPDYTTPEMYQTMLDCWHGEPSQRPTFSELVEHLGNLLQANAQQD

SMILES | pKi (VEGF-R2) | inhibition at 1 µM (VEGF-R2) [%] | pIC50 (HCT 116 cell line; HCT 116, MTT) | IC90 (HCT 116 cell line; [1]) [µM] | IC50 (HCT 116 cell line) [µM] | IC90 (HCT 116 cell line; [2]) [µM]
CN(C)Cc1cccc2[nH]c(-c3n[nH]c4ccc(-c5cncc6ccccc56)cc34)nc12 [Example 31, [2-(5-Isoquinolin-4-yl-1H-indazol-3-yl)-1H-benzoimidazol-4-ylmethyl]-dimethyl-amine] | 5.54 | 17 | – | – | – | –
Fc1ccccc1-c1ccc2[nH]nc(-c3nc4ccccc4[nH]3)c2c1 [Example 6, 3-(1H-Benzoimidazol-2-yl)-5-(2-fluorophenyl)-1H-Indazole] | – | 64 | 5.22 | 21 | – | –
CCc1cncc(-c2ccc3[nH]nc(/C=C/c4ccccc4)c3c2)c1Cl [Example 46, 5-(4-Chloro-5-ethyl-pyridin-3-yl)-3-(E)-styryl-1H-indazole] | – | 51 | – | – | – | –
c1ccc2[nH]c(-c3n[nH]c4ccc(-c5cccc6[nH]ccc56)cc34)nc2c1 [Example 48, 3-(1H-Benzoimidazol-2-yl)-5-(1H-indol-4-yl)-1H-indazole] | – | – | 5.41 | 5 | – | –
O=C(Nc1cccc2c(-c3ccc4[nH]nc(-c5nc6ccccc6[nH]5)c4c3)cncc12)c1cccnc1 [Example 55, N-{4-[3-(1H-Benzoimidazol-2-yl)-1H-indazol-5-yl]-isoquinolin-8-yl}-nicotinamide] | – | 32 | 5.82 | 5 | – | –
Cc1c(O)cccc1-c1ccc2[nH]nc(-c3nc4ccccc4[nH]3)c2c1 [10′, 3-[3-(1H-Benzoimidazol-2-yl)-1H-indazol-5-yl]-2-methyl-phenol] | – | – | 5.82 | 3.8 | – | –
CCNCc1cncc(-c2ccc3[nH]nc(-c4nc5ccccc5[nH]4)c3c2)c1C [Example 74, {5-[3-(1H-Benzoimidazol-2-yl)-1H-indazol-5-yl]-4-methyl-pyridin-3-ylmethyl}-ethyl-amine] | – | 14 | – | – | – | –
CCNCc1cccc2[nH]c(-c3n[nH]c4ccc(-c5cncc6ccccc56)cc34)nc12 [Example 37, Ethyl-[2-(5-isoquinolin-4-yl-1H-indazol-3-yl)-1H-benzoimidazol-4-ylmethyl]-amine] | – | 17 | – | – | 0.041 | 0.12
CC(C)NCc1cccc2[nH]c(-c3n[nH]c4ccc(-c5cncc6ccccc56)cc34)nc12 [Example 38, Isopropyl-[2-(5-isoquinolin-4-yl-1H-indazol-3-yl)-1H-benzoimidazol-4-ylmethyl]-amine] | – | 9 | – | – | 0.029 | 0.06
C(=C\c1n[nH]c2ccc(-c3cncc4ccccc34)cc12)/c1ccccc1 [Example 16] | – | 36 | 5.52 | 5 | – | –

The next lines start with results.

pKi (VEGF-R2) | inhibition at 1 µM (VEGF-R2) [%] | pIC50 (HCT 116 cell line; HCT 116, MTT) | IC90 (HCT 116 cell line; [1]) [µM] | SMILES | IC50 (HCT 116 cell line) [µM] | IC90 (HCT 116 cell line; [2]) [µM]
– | 32 | 6.70 | 0.75 | Cc1c(-c2ccncc2)cncc1-c1ccc2[nH]nc(-c3nc4ccccc4[nH]3)c2c1 [Example 53, 5-[3-(1H-Benzoimidazol-2-yl)-1H-indazol-5-yl]-4-methyl-[3,4′]bipyridinyl] | – | –
– | 46 | 7.10 | 0.23 | c1ccc2[nH]c(-c3n[nH]c4ccc(-c5cncc6c5CCCN6)cc34)nc2c1 [Example 54] | – | –
– | 31 | 6.70 | 0.48 | Cc1c(/C=C/CO)cncc1-c1ccc2[nH]nc(-c3nc4ccccc4[nH]3)c2c1 [Example 59, (E)-3-{5-[3-(1H-Benzoimidazol-2-yl)-1H-indazol-5-yl]-4-methyl-pyridin-3-yl}-prop-2-en-1-ol] | – | –
– | 17 | 6.34 | 1.3 | Cc1c(-c2cccnc2)cncc1-c1ccc2[nH]nc(-c3nc4ccccc4[nH]3)c2c1 [Example 58] | – | –
– | 38 | 6.16 | 2.1 | Cc1c(-c2cccc(CO)c2)cncc1-c1ccc2[nH]nc(-c3nc4ccccc4[nH]3)c2c1 [Example 69, (3-{5-[3-(1H-Benzoimidazol-2-yl)-1H-indazol-5-yl]-4-methyl-pyridin-3-yl}-phenyl)-methanol] | – | –
– | 24 | 6.82 | 0.53 | Cc1c(CO)cncc1-c1ccc2[nH]nc(-c3nc4ccccc4[nH]3)c2c1 [Example 72, {5-[3-(1H-Benzoimidazol-2-yl)-1H-indazol-5-yl]-4-methyl-pyridin-3-yl}-methanol] | – | –
– | 42 | 6.15 | 2 | Cc1c(-c2ccncc2)cncc1-c1ccc2[nH]nc(-c3nc4ccc(NS(C)(=O)=O)cc4[nH]3)c2c1 [Example 71, N-{2-[5-(4-methyl-[3,4′]bipyridinyl-5-yl)-1H-indazol-3-yl)-3H-benzoimidazol-5-yl]-methanesulfonamide] | – | –
– | 6 | 6.74 | 0.8 | OCc1cccc2[nH]c(-c3n[nH]c4ccc(-c5cncc6ccccc56)cc34)nc12 [Example 29, [2-(5-Isoquinolin-4-yl-1H-indazol-3-yl)-1H-benzoimidazol-4-yl]-methanol] | – | –
– | – | 5.92 | 2.5 | Cc1c(O)cccc1-c1ccc2[nH]nc(/C=C/c3ccccc3)c2c1 [15′, 2-Methyl-3-[3-((E)-styryl)-1H-indazol-5-yl]-phenol] | – | –
– | 15 | 6.70 | 0.6 | Cc1c(CN(C)C)cncc1-c1ccc2[nH]nc(-c3nc4ccccc4[nH]3)c2c1 [Example 73, {5-[3-(1H-Benzoimidazol-2-yl)-1H-indazol-5-yl]-4-methyl-pyridin-3-ylmethyl}-dimethyl-amine] | – | –
– | 45 | 6.74 | 0.44 | CS(=O)(=O)Nc1ccc2nc(-c3n[nH]c4ccc(-c5cncc6ccccc56)cc34)[nH]c2c1 [Example 70, N-[2-(5-Isoquinolin-4-yl-1H-indazol-3-yl)-3H-benzoimidazol-5-yl]-methanesulfonamide] | – | –
– | 26 | 6.70 | 0.5 | Cc1c(CCCO)cncc1-c1ccc2[nH]nc(-c3nc4ccccc4[nH]3)c2c1 [Example 60, (E)-3-{5-[3-(1H-Benzoimidazol-2-yl)-1H-indazol-5-yl]-4-methyl-pyridin-3-yl}-propan-1-ol] | – | –
– | 15 | 7.62 | 0.06 | CCN(CC)Cc1cccc2[nH]c(-c3n[nH]c4ccc(-c5cncc6ccccc56)cc34)nc12 [Example 36, Diethyl-[2-(5-isoquinolin-4-yl-1H-indazol-3-yl)-1H-benzoimidazol-4-ylmethyl]-amine] | – | –
– | 18 | 6.66 | 0.5 | CCc1c(-c2ccncc2)cncc1-c1ccc2[nH]nc(-c3nc4ccccc4[nH]3)c2c1 [Example 61, 5-[3-(1H-Benzoimidazol-2yl)-1H-indazol-5-yl]-4ethyl-[3,4′]bipyridinyl] | – | –
– | 38 | 6.30 | 2.2 | Clc1ccncc1-c1ccc2[nH]nc(-c3nc4ccccc4[nH]3)c2c1 [Example 52, 3-(1H-Benzoimidazol-2-yl)-5-(4-chloro-pyridin-3-yl)-1H-indazole] | – | –
